The record followed here is patent US11325916B1, “Spiropyrrolidine derived antiviral agents” (priority 2021, dated 2022).

For one experiment, the target named is SARS-CoV-2 3CL-protease (Severe acute respiratory syndrome coronavirus 2 (2019-nCoV) (SARS-CoV-2), UniProt P0DTD1). As to the kind of experiment: SARS-CoV-2 3C-Like (3CL) Protease Fluorescence Assay (FRET). Type of experiment: biochemical.
The test system of experiment [1] is 229E human corona virus (hCoV). As to the kind of experiment: 229E Live Virus Assay (MRC-5 cells, CPE, ATPlite readout). Type of experiment: cell-based, hCoV-229E. Conditions: read-out: 229E EC50.
Where [2] appears, read: Human coronavirus 229E, MRC5, 144 h.
The mark [3] stands for this setting: Human coronavirus 229E, MRC5, 144 h, MRC-5 cells, hCoV-229E MOI 0.05, 6 days at 34° C., ATPlite, duplicate, ranges defined in μM.

Where two headings read alike, the source gives them in different places. A value given as a limit tells only on which side of the number the result lay.

What is called IC50 is the concentration that inhibits the measured activity by half. Lower therefore signals inhibition by little substance. Broadly, the EC50 is the concentration giving half of the maximal effect. At SARS-CoV-2 3CL-protease, `CN(C(=O)[C@H](Cc1ccc(F)cc1)NC(=O)C1CCC1)[C@@H](CC(C)(C)C)C(=O)N1C[C@]2(C[C@H]1C#N)C(=O)Nc1ccccc12` [Example 64] showed an IC50 of under 0.1 µM. The EC50 in experiment [1] (setting [2]) was under 0.1 µM. Turning to `COC(=O)N[C@H](C(=O)N(C)[C@@H](CC(C)C)C(=O)N1C[C@]2(C[C@H]1C#N)C(=O)Nc1ccccc12)C(C)(C)C` [Example 13], the IC50 at SARS-CoV-2 3CL-protease was under 0.1 µM. In addition, in experiment [1] (setting [2]), the EC50 fell in the range of 0.1 to 1 µM. For the molecule `CC(=O)N[C@@H](CC1CC1)C(=O)N(C)[C@@H](CC(C)(C)C)C(=O)N1C[C@]2(C[C@H]1C#N)C(=O)Nc1ccccc12` [Example 78], the IC50 on SARS-CoV-2 3CL-protease was under 0.1 µM. In addition, the EC50 in experiment [1] (setting [2]) is under 0.1 µM.

Turning to `CN(C(=O)[C@H](CC1CC1)NS(C)(=O)=O)[C@@H](CC(C)(C)C)C(=O)N1C[C@]2(C[C@H]1C#N)C(=O)Nc1ccccc12` [Example 81], the IC50 at SARS-CoV-2 3CL-protease is under 0.1 µM. The EC50 in experiment [1] (setting [2]) was under 0.1 µM. `CC(C)C[C@@H](C(=O)N1C[C@]2(C[C@H]1C#N)C(=O)Nc1ccccc12)N(C)C(=O)[C@H](CC(C)(C)C)NC(=O)C(C)(C)C` [Example 43] showed an IC50 on SARS-CoV-2 3CL-protease of under 0.1 µM. In experiment [1] (setting [2]), the EC50 is under 0.1 µM. The molecule `CC(C)[C@@H](NC(=O)C(F)(F)F)C(=O)N[C@@H](CC(C)(C)C)C(=O)N1C[C@]2(C[C@H]1C#N)C(=O)Nc1ccccc12` [Example 91] registered an IC50 on SARS-CoV-2 3CL-protease of 0.1 to 1 µM. Further, the EC50 in experiment [1] (setting [2]) lay within 0.1 to 1 µM. As to `CC(C)C[C@@H](C(=O)N1C[C@]2(C[C@H]1C#N)C(=O)Nc1ccccc12)N(C)C(=O)C(NC(=O)OCc1ccccc1)c1ccccc1` (some centres unmarked) [Example 22], at SARS-CoV-2 3CL-protease, the IC50 was under 0.1 µM. Also, the EC50 in experiment [1] (setting [2]) was under 0.1 µM. Regarding `CN(C(=O)[C@H](Cc1ccc(F)cc1)n1cc(C2CC2)nn1)[C@@H](CC(C)(C)C)C(=O)N1C[C@]2(C[C@H]1C#N)C(=O)Nc1ccccc12` [Example 9], the IC50 on SARS-CoV-2 3CL-protease was under 0.1 µM. The half-maximal effective concentration (EC50) in experiment [1] (setting [3]) was under 0.1 µM.

At SARS-CoV-2 3CL-protease, `CC(=O)N[C@@H](Cc1cc(F)c(F)cc1F)C(=O)N(C)[C@@H](CC(C)(C)C)C(=O)N1C[C@]2(C[C@H]1C#N)C(=O)Nc1ccccc12` [Example 113] gave a 50% inhibitory concentration (IC50) of under 0.1 µM. Moreover, the EC50 in experiment [1] (setting [2]) was under 0.1 µM.

On SARS-CoV-2 3CL-protease, `CC(C)OC(=O)N[C@@H](CC1CC1)C(=O)N(C)[C@@H](CC(C)(C)C)C(=O)N1C[C@]2(C[C@H]1C#N)C(=O)Nc1ccccc12` [Example 121] showed an IC50 of under 0.1 µM. Moreover, the EC50 in experiment [1] (setting [2]) was under 0.1 µM. Take `CN(C(=O)[C@H](CC1CC1)NS(=O)(=O)c1ccn(-c2ccc(F)cc2)n1)[C@@H](CC(C)(C)C)C(=O)N1C[C@]2(C[C@H]1C#N)C(=O)Nc1ccccc12` [Example 70]: at SARS-CoV-2 3CL-protease, the IC50 was under 0.1 µM. The EC50 in experiment [1] (setting [2]) was under 0.1 µM. Turning to `CC(C)(C)C[C@H](NC(=O)[C@H](Cc1ccc(F)cc1)NC(=O)C(F)(F)F)C(=O)N1C[C@]2(C[C@H]1C#N)C(=O)Nc1ccccc12` [Example 63], the IC50 at SARS-CoV-2 3CL-protease is under 0.1 µM. Moreover, the EC50 in experiment [1] (setting [3]) is under 0.1 µM. `CC(=O)N[C@H](C(=O)N[C@@H](CC(C)(C)C)C(=O)N1C[C@]2(C[C@H]1C#N)C(=O)Nc1ccccc12)C(C)C` [Example 88] had a concentration for half-maximal inhibition (IC50) against SARS-CoV-2 3CL-protease of 0.1 to 1 µM. Further, in experiment [1] (setting [2]), the EC50 lay in the range of 0.1 to 1 µM. `Cc1cc(C(=O)N[C@@H](Cc2ccc(F)cc2)C(=O)N(C)[C@@H](CC(C)(C)C)C(=O)N2C[C@]3(C[C@H]2C#N)C(=O)Nc2ccccc23)no1` [Example 39] came in with an IC50 on SARS-CoV-2 3CL-protease of under 0.1 µM. In experiment [1] (setting [2]), the EC50 is under 0.1 µM. On to `CC(=O)N[C@@H](C(=O)N[C@@H](CC(C)(C)C)C(=O)N1C[C@]2(C[C@H]1C#N)C(=O)Nc1ccccc12)C(C)C` [Example 89], for which the IC50 against SARS-CoV-2 3CL-protease lay in the range of 0.1 to 1 µM. Also, the EC50 in experiment [1] (setting [2]) lay in the range of 0.1 to 1 µM.

At SARS-CoV-2 3CL-protease, `CN(C(=O)[C@@H](N)C(C)(C)C)[C@@H](Cc1ccccc1)C(=O)N1C[C@]2(C[C@H]1C#N)C(=O)Nc1ccccc12` [Example 29] gave an IC50 of under 0.1 µM. Moreover, in experiment [1] (setting [2]), the EC50 is 0.1 to 1 µM. On the same counts, the results for `CC(C)C[C@@H](C(=O)N1C[C@]2(C[C@H]1C#N)C(=O)Nc1ccccc12)N(C)C(=O)[C@@H](NC(=O)OCc1ccccc1)C(C)C` [Example 49] are under 0.1 µM and under 0.1 µM. As for `Cc1cc(C(=O)N[C@H](C(=O)N(C)[C@@H](CC(C)C)C(=O)N2C[C@]3(C[C@H]2C#N)C(=O)Nc2ccccc23)C2CCCCC2)no1` [Example 40], the half-maximal inhibitory concentration (IC50) on SARS-CoV-2 3CL-protease is under 0.1 µM. In addition, in experiment [1] (setting [2]), the concentration giving a half-maximal response (EC50) lay in the range of 0.1 to 1 µM.

The molecule `CN(C(=O)[C@H](CC1CC1)NC(=O)N1CCOCC1)[C@@H](CC(C)(C)C)C(=O)N1C[C@]2(C[C@H]1C#N)C(=O)Nc1ccccc12` [Example 83] came in with an IC50 at SARS-CoV-2 3CL-protease of under 0.1 µM. For the same molecule, the EC50 in experiment [1] (setting [2]) was under 0.1 µM. In turn, `[2H]C([2H])([2H])N(C(=O)[C@H](CC1CC1)NC(=O)C(F)(F)F)[C@@H](Cc1ccc(F)cc1)C(=O)N1C[C@]2(C[C@H]1C#N)C(=O)Nc1ccccc12` [Example 74] registered an IC50 on SARS-CoV-2 3CL-protease of under 0.1 µM. The EC50 in experiment [1] (setting [2]) is under 0.1 µM.

`CC(C)C[C@@H](C(=O)N1C[C@]2(C[C@H]1C#N)C(=O)Nc1ccccc12)N(C)C(=O)[C@H](CC1CCC1)NC(=O)C(C)(C)C` [Example 42] gave a half-maximal inhibitory concentration (IC50) against SARS-CoV-2 3CL-protease of under 0.1 µM. The EC50 in experiment [1] (setting [2]) is under 0.1 µM. Consider `CC(C)[C@@H](NC(=O)OC(C)(C)C)C(=O)N(C)[C@@H](Cc1ccccc1)C(=O)N1C[C@]2(C[C@H]1C#N)C(=O)Nc1ccccc12` [Example 48], for which, at SARS-CoV-2 3CL-protease, the IC50 was under 0.1 µM. In experiment [1] (setting [2]), the EC50 is under 0.1 µM. Regarding `CN(C(=O)[C@H](CC1CC1)NC(=O)C(F)(F)F)[C@@H](CC(C)(C)C)C(=O)N1C[C@]2(C[C@H]1C#N)C(=O)Nc1ccccc12` [Example 75], the half-maximal inhibitory concentration (IC50) at SARS-CoV-2 3CL-protease was under 0.1 µM. Moreover, the 50% effective concentration (EC50) in experiment [1] (setting [2]) was under 0.1 µM. As to `CC(C)[C@H](NS(=O)(=O)c1ccc(F)cc1)C(=O)N(C)[C@@H](CC(C)(C)C)C(=O)N1C[C@]2(C[C@H]1C#N)C(=O)Nc1ccccc12` [Example 111], the concentration giving a half-maximal response (EC50) in experiment [1] (MRC-5 cells, hCoV-229E MOI 0.05, 6 days at 34° C., ATPlite, duplicate, ranges defined in μM) is 0.1 to 1 µM.

Molecule `CC(=O)N[C@@H](CC1CC1)C(=O)N[C@@H](CC(C)(C)C)C(=O)N1C[C@]2(C[C@H]1C#N)C(=O)Nc1ccccc12` [Example 95] registered an IC50 at SARS-CoV-2 3CL-protease of under 0.1 µM. Molecule `CN(C(=O)[C@H](CC1CC1)NC(=O)c1cc2c(F)cc(F)c(F)c2[nH]1)[C@@H](CC(C)(C)C)C(=O)N1C[C@]2(C[C@H]1C#N)C(=O)Nc1ccccc12` [Example 126] returned an IC50 at SARS-CoV-2 3CL-protease of under 0.1 µM. `Cc1cc(C(=O)N[C@@H](Cc2ccc(F)cc2)C(=O)N[C@@H](CC(C)(C)C)C(=O)N2C[C@]3(C[C@H]2C#N)C(=O)Nc2ccccc23)no1` [Example 105] showed an IC50 against SARS-CoV-2 3CL-protease of under 0.1 µM. On SARS-CoV-2 3CL-protease, `CC(C)(C)C[C@H](NC(=O)[C@H](CC1CC1)NC(=O)NC1CC1)C(=O)N1C[C@]2(C[C@H]1C#N)C(=O)Nc1ccccc12` [Example 38] returned an IC50 of under 0.1 µM. Still for that read-out and setting: for `CC(C)C(=O)N[C@@H](C)C(=O)N(C)[C@@H](CC(C)(C)C)C(=O)N1C[C@]2(C[C@H]1C#N)C(=O)Nc1ccccc12` [Example 130] the value was under 0.1 µM; for `CN(C(=O)[C@H](CC1CC1)NC(=O)c1ccc(OC2CC2)c(OC2CC2)c1)[C@@H](CC(C)(C)C)C(=O)N1C[C@]2(C[C@H]1C#N)C(=O)Nc1ccccc12` [Example 131], under 0.1 µM; for `CC(C)C[C@@H](C(=O)N1C[C@]2(C[C@H]1C#N)C(=O)Nc1ccccc12)N(C)C(=O)[C@H](C)NC(=O)c1ccc(F)cc1` [Example 135], under 0.1 µM. Same read-out and setting: for `Cc1ncc(C(=O)N[C@@H](CC2CC2)C(=O)N[C@@H](CC(C)(C)C)C(=O)N2C[C@]3(C[C@H]2C#N)C(=O)Nc2ccccc23)s1` [Example 100] the value was under 0.1 µM; for `CC(C)(C)C[C@H](NC(=O)[C@H](CC1CC1)NC(=O)C1(c2ccccc2)CC1)C(=O)N1C[C@]2(C[C@H]1C#N)C(=O)Nc1ccccc12` [Example 71], under 0.1 µM.
